From patent US20170095423A1, “Use of selectively moisture-adjusted tabletting material in the production of mechanically stable tablets which contain at least one hydrate-forming active substance and/or adjuvant relevant to the mechanical stability of the tablets, particularly arginine-containing tablets” (Boehringer Ingelheim International GmBH, priority 2012, published 2017)

Assay: sorption/desorption (DVS) behaviour: phase transition of the hydrate-forming agent L-arginine
Format: physicochemical
Excerpt: DVS measurement: measurement of the water absorption of a sample as a function of relative humidity and temperature using a highly sensitive sorption scale.
Phase transition in hydrate-forming active substances or adjuvants: the relative humidity at which the hydrate-forming agent water (particularly water of crystallization) is incorporated and changes from an anhydrate or a lower-valency form into a higher valency hydrate form, or vice versa. This relative humidity is characteristic of the respective hydrate-forming agent; if a hydrate-forming agent incorporates water in several steps, there are several phase transitions in this substance. For example: phase transition for pure L-arginine: 38% r.h./25° C. with incorporation of about 1.5 mol of water per 1 mol of L-arginine; in mixtures comprising L-arginine the phase transition is typically between 38 and 40% r.h./25° C., but in the test formulation described herein by way of example it starts, at latest, at 40% r.h./25° C.
(sorption and desorption cycle; change water content vs. rel. humidity). Tablets produced from tabletting material pre-conditioned at 25° C./45% r.h. were subsequently stored in very different humidity ranges (arrows; for discussion of the cases 1-4 see the description herein).

Compound: N=C(N)NCCC[C@H](N)C(=O)O [L-arginine]
- phase transition (relative humidity at which water of crystallization is incorporated), sorption cycle (25° C.): 38 % r.h.
- phase transition in the desorption cycle (release of water of crystallisation) (25° C.): < 30 % r.h.
- water incorporated at phase transition (38% r.h./25° C.): about 1.5 mol of water per 1 mol of L-arginine
- relative humidity to ensure the phase transition, sorption cycle (at 40° C.): about 47 % r.h.
